# In paper PMC9946977, “Identification of linderalactone as a natural inhibitor of SHP2 to ameliorate CCl4-induced liver fibrosis” (Frontiers in Pharmacology, 2023):
# Key:
# [1] = tested on: LX-2 cells; test: LX-2 cells: fibrogenic gene expression and Smad2/3 phosphorylation; assay type: cell-based, human
# Experimental: The LX-2 cell line was purchased from the Cell Bank Type Culture Collection of the Chinese Academy of Sciences (Shanghai, China). Cells were cultured in DMEM supplemented with 10% [v/v] foetal bovine serum, 2 mM glutamine, 100 U/ml penicillin, and […] streptomycin. SHP-2 and control siRNAs were obtained from Suzhou GenePharma Co., Ltd. (sense 5'-3': GAGAGAGGAAAGAGUAAAUTT; antisense 5'-3': AUUUACUCUUUCCUCUCUCTT). Transfection was performed according to the manufacturer’s instructions. Subsequent real-time PCR and western blotting were performed to analyse transfection efficiency.
# Total RNA was extracted from liver tissues and LX-2 cells using the TRIzol reagent. cDNA was synthesised using a PrimeScript RT Master Mix kit. […] Relative expression of target genes was normalised to actin, analysed by the delta-delta-CT method and given as a ratio compared with the vehicle control. […]
# Liver proteins were isolated by using a lysis buffer containing 50 mM Tris-HCl (pH7.5), 150 mM NaCl, 1 mM EDTA, 20 mM NaF, 0.5% NP-40, 10% glycerol, 1 mM phenylmethylsulphonyl fluoride, 10 μg/mL aprotinin, 10 μg/mL leupeptin, and 10 μg/mL pepstatin. The supernatants were collected after centrifugation at 3,000 g for 10 min at 4°C, and the protein concentration of each sample was determined and normalised to the same protein concentration. […]
# [2] = molecular target: T1, SHP2 PTP domain (Homo sapiens, UniProt Q06124); test: SHP2 inhibition assay (DiFMUP) with SHP2-PTP; HTS and dose-response; assay type: biochemical
# T1 construct: Human SHP2 PTP domain (A237–I529) expression constructs; His-tag; made in house; host or cells: E. coli BL21 (DE3)
# T1 sequence (Q06124 237-529): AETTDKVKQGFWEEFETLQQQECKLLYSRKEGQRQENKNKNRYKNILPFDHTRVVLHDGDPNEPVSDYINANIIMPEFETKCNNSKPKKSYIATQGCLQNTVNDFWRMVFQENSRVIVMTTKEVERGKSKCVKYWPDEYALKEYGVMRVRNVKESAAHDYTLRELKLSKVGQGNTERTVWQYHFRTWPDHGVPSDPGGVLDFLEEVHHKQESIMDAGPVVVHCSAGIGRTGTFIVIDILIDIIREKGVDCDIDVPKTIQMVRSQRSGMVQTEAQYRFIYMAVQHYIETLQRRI
# Experimental: Human SHP2 PTP domain (A237–I529) expression constructs were engineered by cloning PTPN11 (NP_002825.3) into the pET30 plasmid with a His-tag to support further protein purification. The K366A/Q510A double mutation was introduced into the wild-type template using a site-directed mutagenesis kit (E0554S; New England Biolabs). The expression constructs were sequenced and transformed into BL21 (DE3)-competent cells. E. coli cells were grown at 37°C in an LB culture medium in the presence of […] kanamycin until the OD600 reached 1.0. The medium was then cooled to 18°C and 1 mM isopropyl ß-D-1-thiogalactopyranoside (IPTG) was added to induce protein expression overnight.
# A surrogate phosphatase substrate, 6,8-difluoro-4-methylumbelliferyl phosphate (DiFMUP, Thermo Fisher, #D22065), was used to monitor the catalytic activity of SHP2 in a prompt fluorescence assay format. Specifically, the DiFMUP phosphatase assay was performed at 20°C in a 384-well Griener CELLSTAR black polystyrene plate in the buffer condition of 60 mM HEPES (pH7.5), 75 mM NaCl, 75 mM KCl, 1 mM EDTA, 0.05% Tween-20, 5 mM dithiothreitol (DTT). The final reaction volume was 25 μL. NP compound libraries were obtained from TargetMol at a stock concentration of 10 mM, dissolved in DMSO. The purity of the active compound LIN used in this study is 96.27% as tested by HPLC analysis. The HPLC traces is shown in Supporting Information. We co-incubated 0.5 nM of SHP2-PTP enzyme with tested NPs for 30 min at 20°C, followed by the addition of DiFMUP into the reaction. After 30 min, 5 μL of bpV(phen) solution was added to quench the dephosphorylation reaction. The signals were read on a plate reader (SpectraMax iD5, Molecular Devices). The excitation and emission wavelengths were 340 and 450 nm, respectively. The inhibitor dose-response curves were evaluated using a normalised IC50 regression curve fitting with control-based normalisation. For the full-length SHP2 inhibition assay, 0.5 μM of a bisphosphorylated pIRS-1 peptide (ChinaPeptides Ltd. Shanghai) was added for partial SHP2 activation. […]
structure (smiles),measurement,setting,value
"C/C1=C\CCC2=C[C@@H](OC2=O)c2c(C)coc2C1 [LIN, linderalactone]","fibrogenic gene expression (e.g., ACTA2, VIM, TGF-β, FN1, DES, COL1A1)","[1]; 10 μM LIN, 24 h, qPCR",significantly decreased
same,phosphorylation level of smad2/3,"[1]; LIN 5 and 10 μM, Western blot",significant reduced
same,IC50,"[2]; 0.5 nM SHP2-PTP, DiFMUP substrate, 30 min co-incubation at 20°C, read-out: IC50 against the SHP2 PTP domain",1870 ± 850 nM
same,inhibitory activity in verification experiment of initial hits,[2]; dose-response confirmation of HTS hits,best inhibitory activity among the screened hits
